Measurements as given in patent EP1480941B1, “UREA DERIVATIVES AS HIV ASPARTYL PROTEASE INHIBITORS” (priority 2002, dated 2003).
Where two headings read alike, the source gives them in different places.

Molecular target: HIV protease (Human immunodeficiency virus type 1 group M subtype B, UniProt P04585)
Assay: Enzymatic (fluorometric FRET) assay for determining the inhibition constant (Ki)
Assay type: biochemical
Details: EDANS/DABCYL substrate, equation of Henderson
Text: Enzymatic assay for determining the inhibition constant (Ki) of synthetic compounds targeting the HIV protease
This is a fluorometric assay based on the cleavage by protease of a substrate carrying a donor group (EDANS) and an acceptor group (DABCYL) on each side of the cleavage site, interacting together through fluorescence resonance energy transfer (FRET) as described by Matayoshi et al. (Science 247:[…], 1990).
After calculation of Vo and Vi, the inhibition constant (Ki) of the compound is determined using the equation of Henderson: (Vo)/(Vi) = 1 + ([I])/(Kiapp) Where Ki = (Kiapp)/((1 + [S])/(Km)) [formula] where Vo = the enzyme's initial velocity Vi = the enzyme velocity in the presence of the inhibitory compound, [I] = inhibitor concentration, [S] = substrate concentration, Km = Michaelis-Menten constant and Kiapp = apparent Ki
Graphs are traced and the Ki determined using GraphPad Prism software v. 3.0.

SMILES | Ki (read-out: Ki) [nM] | Ki (Ki) [nM] | other results
Cc1ccc(S(=O)(=O)N(CC(C)C)C(CCCCNC(=N)NCc2ccccc2)C(=O)O)cc1 (racemic) [Example 30, Nα-isobutyl-Nα-(4-methylbenzenesulfonyl)-Nω-benzyl-DL-homoarginine] | > 300 |  | 
Cc1ccc(S(=O)(=O)N(CC(C)C)[C@@H](CCCCNC(=O)NCCc2ccccc2)C(=O)O)cc1 [Example 1, Nα-isobutyl-Nα-(4-methylbenzenesulfonyl)-Nε-(2'-phenethylaminocarbonyl)-L-lysine] |  | 204 | 
Cc1ccc(S(=O)(=O)N(CC(C)C)[C@@H](CCCCNC(=O)NCc2ccccn2)C(=O)O)cc1 [Example 3, Nα-isobutyl-Nα-(4-methylbenzenesulfonyl)-N∈-[N'-(2-picolyl)aminocarbonyl]-L-lysine] | > 300 |  | 
Cc1ccc(S(=O)(=O)N(CC(C)C)[C@@H](CCCCNC(=O)NCCc2ccc(O)cc2)C(=O)O)cc1 [Example 5, Nα-isobutyl-Nα-(4-methylbenzenesulfonyl)-N∈-[2'-(4-hydroxyphenethyl)aminocarbonyl]-L-lysine] | > 300 |  | 
Cc1ccc(S(=O)(=O)N(CC(C)C)[C@@H](CCCCNC(=O)N(CC(C)C)C2CCCCC2)C(=O)O)cc1 [Example 7, Nα-isobutyl-Nα-(4-methylbenzenesulfonyl)-N∈-[(N'-cyclohexyl-N'-isobutyl)aminocarbonyl]-L-lysine] | > 300 |  | 
Cc1ccc(S(=O)(=O)N(CC(C)C)[C@@H](CCCCNC(=O)N[C@@H](Cc2ccccc2)C(N)=O)C(=O)O)cc1 [Example 8, Nα-isobutyl-Nα-(4-methylbenzenesulfonyl)-N∈-[L-phenylalanylamide-N'a-carbonyl]-L-lysine] |  | 60 | 
Cc1ccc(S(=O)(=O)N(CC(C)C)[C@@H](CCCCNC(=O)N[C@H](Cc2ccccc2)C(N)=O)C(=O)O)cc1 [Example 9, Nα-isobutyl-Nα-(4-methylbenzenesulfonyl)-N∈-[D-phenylalanylamide-N'α-carbonyl]-L-lysine] |  | 131 | 
Cc1ccc(S(=O)(=O)N(CC(C)C)[C@@H](CCCCNC(=O)NNC(=O)c2ccccc2O)C(=O)O)cc1 [Example 10, Nα-isobutyl-Nα-(4-methylbenzenesulfonyl)-N∈-[N2-(2-hydroxybenzoyl)-hydrazino-N1-carbonyl]-L-lysine] |  | 55 | 
Cc1ccc(S(=O)(=O)N(CC(C)C)[C@@H](CCCCNC(=O)NNC(=O)c2ccncc2)C(=O)O)cc1 [Example 11, Nα-isobutyl-Nα-(4-methylbenzenesulfonyl)-N∈-[N2-(pyridine-4-carbonyl)-hydrazino-N1-carbonyl]-L-lysine] |  | > 300 | 
Cc1ccc(S(=O)(=O)N(CC(C)C)[C@@H](CCCCNC(=O)N[C@@H](Cc2ccccc2)C(=O)NCC(C)C)C(=O)O)cc1 [Example 12, Nα-isobutyl-Nα-(4-methylbenzenesulfonyl)-N∈-(L-phenylalanyl-N'-isobutylamide-N'α-carbonyl)-L-lysine] |  | 47 | 
Cc1ccc(S(=O)(=O)N(CC(C)C)[C@@H](CCCCNC(=O)N[C@@H](Cc2ccccc2)C(=O)Nc2ccccc2)C(=O)O)cc1 [Example 13, Nα-isobutyl-Nα-(4-methylbenzenesulfonyl)-N∈-(L-phenylalanyl-N'-phenylamide-N'α-carbonyl)-L-lysine] |  | 60 | 
Cc1ccc(S(=O)(=O)N(CC(C)C)C(CCCCNC(=S)NC2CCc3ccccc32)C(=O)O)cc1 [Example 14, (1S,TRS) Nα-isobutyl-Nα-(4-methylbenzenesulfonyl)-N∈-(indanyl-1'-aminothiocarbonyl)-S-lysine] | > 300 |  | 
Cc1ccc(S(=O)(=O)N(CC(C)C)[C@@H](CCCCNC(=O)NCCN2CCCCC2)C(=O)O)cc1 [Example 17, Nα-isobutyl-Nα-(4-methylbenzenesulfonyl)-N∈-[2'-(1-pyperidinyl)ethylaminocarbonyl]-L-lysine] | > 300 |  | 
COC(=O)[C@H](CCCCNC(=O)NCCc1ccccn1)N(CC(C)C)S(=O)(=O)c1ccc(C)cc1 [Example 19, Nα-isobutyl-Nα-(4-methylbenzenesulfonyl)-N∈-[(2'-pyridyl)ethylaminocarbonyl]-L-lysine methyl ester] |  | > 300 | 
Cc1ccc(S(=O)(=O)N(CC(C)C)[C@@H](CCCCNC(=O)Nc2nccc3ccccc23)C(=O)O)cc1 [Example 20, Nα-isobutyl-Nα-(4-methylbenzenesulfonyl)-N∈-(1'-isoquinolylaminocarbonyl)-L-lysine] | > 300 |  | 
Cc1ccc(S(=O)(=O)N(CC(C)C)[C@@H](CCCCNC(=O)N[C@@H]2c3ccccc3C[C@@H]2O)C(=O)O)cc1 [Example 22, (1S,1'R,2'S) Nα-isobutyl-Nα-(4-methylbenzenesulfonyl)-N∈-(cis-2'-hydroxyindanyl-1'-aminocarbonyl)-S-lysine] | > 300 |  | 
Cc1ccc(S(=O)(=O)N(CC(C)C)[C@@H](CCCCNC(=O)N[C@H]2c3ccccc3C[C@H]2O)C(=O)O)cc1 [Example 23, (1S,1'S,2'R) Nα-isobutyl-Nα-(4-methylbenzenesulfonyl)-N∈-(cis-2'-hydroxyindanyl-1'-aminocarbonyl)-S-lysine] | > 300 |  | 
Cc1ccc(S(=O)(=O)N(CC(C)C)[C@@H](CCCCNC(=O)N[C@H]2CCc3ccccc32)C(=O)O)cc1 [Example 25, (15,1'S) Nα-isobutyl-Nα-(4-methylbenzenesulfonyl)-N∈-(indanyl-1'-aminocarbonyl)-S-lysine] | > 300 |  | 
Cc1ccc(S(=O)(=O)N(CC(C)C)[C@H](CCCCNC(=O)N[C@H]2CCc3ccccc32)C(=O)O)cc1 [Example 26, (1R,1'S) Nα-isobutyl-Nα-(4-methylbenzenesulfonyl)-N∈-(indanyl-1'-aminocarbonyl)-R-lysine] | > 300 |  | 
Cc1ccc(S(=O)(=O)N(CC(C)C)[C@H](CCCCNC(=O)N[C@@H]2CCc3ccccc32)C(=O)O)cc1 [Example 27, (1R,1'R) Nα-isobutyl-Nα-(4-methylbenzenesulfonyl)-N∈-(indanyl-1'-aminocarbonyl)-R-lysine] |  |  | Ki: > 300 nM
Cc1ccc(S(=O)(=O)N(CC(C)C)[C@@H](CCCCNC(=O)N(CCc2ccccc2)Cc2ccccc2)C(=O)O)cc1 [Example 31, Nα-isobutyl-Nα-(4-methylbenzenesulfonyl)-N∈-[(N'-benzyl-N'-phenethyl)aminocarbonyl]-L-lysine] | > 300 |  | 
Cc1ccc(S(=O)(=O)N(CC(C)C)[C@@H](CCCCNC(=O)N(CC(C)C)CC(C)C)C(=O)O)cc1 [Example 35, Nα-isobutyl-Nα-(4-methylbenzenesulfonyl)-N∈-(N',N'-diisobutylaminocarbonyl)-L-lysine] | > 300 |  | 
Cc1ccc(S(=O)(=O)N(CC(C)C)[C@H](CO)CCCCNC(=O)N(Cc2ccncc2)Cc2ccncc2)cc1 [Example 46, (2S) 2-N-isobutyl-2-N-(4-methylbenzenesulfonyl)-6-N-[N',N'-di-(4-picolyl)aminocarbonyl]-2,6-diaminohexanol] | > 300 |  | 
CC(C)CN([C@H](CO)CCCCNC(=O)N(Cc1ccncc1)Cc1ccncc1)S(=O)(=O)c1ccc(N)cc1 [Example 51, (2S) 2-N-(4-aminobenzenesulfonyl)-2-N-isobutyl-6-N [N',N'-di-(4-picolyl)aminocarbonyl]-2,6-diaminohexanol] | > 300 |  | 
Cc1ccc(S(=O)(=O)N(CC(C)C)[C@@H](CCCCNC(=O)N(Cc2ccccc2)Cc2cccc(N)c2)C(=O)O)cc1 [Example 58, Nα-isobutyl-Nα-(4-methylbenzenesulfonyl)-N∈-[N'-(3-aminobenzyl)-N'-benzylaminocarbonyl]-L-lysine] | > 300 |  | 
